Assay results: ChEMBL document CHEMBL1133873, “Highly potent growth hormone secretagogues: hybrids of NN703 and ipamorelin” (Bioorg Med Chem Lett, 2001)
Where a SMILES comes first, the peptide text is derived from it. [ ]: non-standard residue; d: D form. d2Nal = N[C@H](Cc1ccc2ccccc2c1)C(=O)O; Aib = CC(C)(N)C(=O)O

What was measured:
Rattus norvegicus [1] = organism: Rattus norvegicus; test: Concentration required for GH release from isolated pituitary cells of rat tested in vitro; format: functional, cell-based; details: Pituitary gland cell
Rattus norvegicus [2] = organism: Rattus norvegicus; test: Efficacy was determined as percent of GHRP-6 in rat pituitary cell assay tested in vitro; format: functional; details: Pituitary gland cell
Sus scrofa [3] = test: Release of growth hormone at single iv dose of 50 nmol/kg in pigs; format: functional
Sus scrofa [4] = test: Effective dose required for release of GH from pigs in vivo; format: functional

`CN(C(=O)/C=C/CC(C)(C)N)[C@@H](Cc1ccc2ccccc2c1)C(=O)N(C)[C@@H](Cc1ccccc1)C(=O)NCCCCCN=C(N)N` gave an EC50 (Rattus norvegicus [1]) of 17 nM, an Emax (Rattus norvegicus [2]) of 140% and a GHmax (Sus scrofa [3]) of 49 ng/mL.

With `CN(C(=O)/C=C/CC(C)(C)N)[C@@H](Cc1ccc(-c2ccccc2)cc1)C(=O)N(C)[C@@H](Cc1ccccc1)C(=O)NCCCCN` the EC50 (Rattus norvegicus [1]) was 1 nM, the Emax (Rattus norvegicus [2]) was 110% and the GHmax (Sus scrofa [3]) was 91 ng/mL.

With `CN(C)C(=O)[C@H](CCCCN)NC(=O)[C@H](Cc1ccccc1)N(C)C(=O)[C@H](Cc1ccc2ccccc2c1)N(C)C(=O)/C=C/CC(C)(C)N` the EC50 (Rattus norvegicus [1]) was 0.3 nM, the Emax (Rattus norvegicus [2]) was 130% and the GHmax (Sus scrofa [3]) was 105 ng/mL.

`CN(C)C(=O)CCCN(C)C(=O)[C@H](Cc1ccccc1)N(C)C(=O)[C@H](Cc1ccc2ccccc2c1)N(C)C(=O)/C=C/CC(C)(C)N` gave an EC50 (Rattus norvegicus [1]) of 21 nM, an Emax (Rattus norvegicus [2]) of 105% and a GHmax (Sus scrofa [3]) of 21 ng/mL.

In the case of `CC(C)(N)C(=O)N[C@H](COCc1ccccc1)C(=O)N1CCC2(CC1)CN(S(C)(=O)=O)c1ccccc12` [IBUTAMOREN], the EC50 (Rattus norvegicus [1]) is reported as 0.6 nM, the ED50 (Sus scrofa [4]) is reported as 0.084 µmol/kg and the Emax (Rattus norvegicus [2]) is reported as 115%. It also gave a GHmax (Sus scrofa [3]) of 60 ng/mL.

`CC(C)(N)C(=O)N[C@@H](Cc1c[nH]cn1)C(=O)N[C@H](Cc1ccc2ccccc2c1)C(=O)N[C@H](Cc1ccccc1)C(=O)N[C@@H](CCCCN)C(N)=O` [IPAMORELIN] (H-[Aib]H[d2Nal][dF]K-NH2) was tested, and the ED50 (Sus scrofa [4]) was 0.0023 µmol/kg, the Emax (Rattus norvegicus [2]) was 85% and the GHmax (Sus scrofa [3]) was 54 ng/mL.

Work on `CN(C)C(=O)[C@H](CCCCN)NC(=O)[C@H](Cc1ccccc1)N(C)C(=O)[C@H](Cc1ccc(-c2ccccc2)cc1)N(C)C(=O)/C=C/CC(C)(C)N` yielded an EC50 (Rattus norvegicus [1]) of 0.15 nM, an Emax (Rattus norvegicus [2]) of 110% and a GHmax (Sus scrofa [3]) of 116 ng/mL.

`CCNC(=O)NCCCCCNC(=O)[C@H](Cc1ccccc1)N(C)C(=O)[C@H](Cc1ccc2ccccc2c1)N(C)C(=O)/C=C/CC(C)(C)N` was tested, and the EC50 (Rattus norvegicus [1]) was 14 nM, the Emax (Rattus norvegicus [2]) was 95% and the GHmax (Sus scrofa [3]) was 8 ng/mL.

With `CN(C)C(=O)CN(C)C(=O)[C@H](Cc1ccccc1)N(C)C(=O)[C@H](Cc1ccc2ccccc2c1)N(C)C(=O)/C=C/CC(C)(C)N` the EC50 (Rattus norvegicus [1]) was 10 nM, the Emax (Rattus norvegicus [2]) was 105% and the GHmax (Sus scrofa [3]) was 48 ng/mL.

For `CN(C(=O)/C=C/CC(C)(C)N)[C@@H](Cc1ccc(-c2ccccc2)cc1)C(=O)N(C)[C@@H](Cc1ccccc1)C(=O)NCCN`, the EC50 (Rattus norvegicus [1]) was 5 nM, the Emax (Rattus norvegicus [2]) was 90% and the GHmax (Sus scrofa [3]) was 62 ng/mL.

In the case of `CN(C)CCCN(C)C(=O)[C@H](Cc1ccccc1)N(C)C(=O)[C@H](Cc1ccc(-c2ccccc2)cc1)N(C)C(=O)/C=C/CC(C)(C)N`, the EC50 (Rattus norvegicus [1]) is reported as 4 nM, the Emax (Rattus norvegicus [2]) is reported as 95% and the GHmax (Sus scrofa [3]) is reported as 50 ng/mL.

Work on `CC(=O)NCCCCCNC(=O)[C@H](Cc1ccccc1)N(C)C(=O)[C@H](Cc1ccc2ccccc2c1)N(C)C(=O)/C=C/CC(C)(C)N` yielded an EC50 (Rattus norvegicus [1]) of 10 nM, an Emax (Rattus norvegicus [2]) of 110% and a GHmax (Sus scrofa [3]) of 26 ng/mL.

`CN(C)CCCN(C)C(=O)[C@H](Cc1ccccc1)N(C)C(=O)[C@H](Cc1ccc2ccccc2c1)N(C)C(=O)/C=C/CC(C)(C)N` gave an EC50 (Rattus norvegicus [1]) of 2 nM, an Emax (Rattus norvegicus [2]) of 105% and a GHmax (Sus scrofa [3]) of 45 ng/mL.

In the case of `CNC(=O)CCCN(C)C(=O)[C@H](Cc1ccccc1)N(C)C(=O)[C@H](Cc1ccc2ccccc2c1)N(C)C(=O)/C=C/CC(C)(C)N`, the EC50 (Rattus norvegicus [1]) is reported as 30 nM, the Emax (Rattus norvegicus [2]) is reported as 100% and the GHmax (Sus scrofa [3]) is reported as 32 ng/mL.

In the case of `CN(C(=O)/C=C/CC(C)(C)N)[C@@H](Cc1ccc(-c2ccccc2)cc1)C(=O)N(C)[C@@H](Cc1ccccc1)C(=O)NCCCN`, the EC50 (Rattus norvegicus [1]) is reported as 6 nM, the Emax (Rattus norvegicus [2]) is reported as 130% and the GHmax (Sus scrofa [3]) is reported as 25 ng/mL.

With `CN(C(=O)/C=C/CC(C)(C)N)[C@@H](Cc1ccc(-c2ccccc2)cc1)C(=O)N(C)[C@@H](Cc1ccccc1)C(=O)NCCCCCCN` the EC50 (Rattus norvegicus [1]) was 1 nM, the Emax (Rattus norvegicus [2]) was 130% and the GHmax (Sus scrofa [3]) was 80 ng/mL.

Work on `CN(C(=O)/C=C/CC(C)(C)N)[C@@H](Cc1ccc2ccccc2c1)C(=O)N(C)[C@@H](Cc1ccccc1)C(=O)N[C@@H](CCCCN)C(N)=O` yielded an EC50 (Rattus norvegicus [1]) of 1.8 nM, an Emax (Rattus norvegicus [2]) of 105% and a GHmax (Sus scrofa [3]) of 76 ng/mL.
